Results: US20250163104A1, “MACROCYCLIC IMMUNOMODULATORS” (priority 2021, published 2025)
Where a SMILES comes first, the peptide text is derived from it. Bridges are numbered along the chain shown (N, C = ends). [ ]: non-standard residue; d: D form. The star is where a group is joined. Trp(5-CN) = N#Cc1ccc2[nH]cc(C[C@H](N)C(=O)O)c2c1; Phe(3-CF3) = N[C@@H](Cc1cccc(C(F)(F)F)c1)C(=O)O; Ala(morpholin-4-yl) = N[C@@H](CN1CCOCC1)C(=O)O; Phe(4-COOH) = N[C@@H](Cc1ccc(C(=O)O)cc1)C(=O)O; Bip = N[C@@H](Cc1ccc(-c2ccccc2)cc1)C(=O)O; Phe(3-Me) = Cc1cccc(C[C@H](N)C(=O)O)c1; Val(3-OH) = CC(C)(O)[C@H](N)C(=O)O; hArg = N=C(N)NCCCC[C@H](N)C(=O)O; 3Pal = N[C@@H](Cc1cccnc1)C(=O)O; 4Pal = N[C@@H](Cc1ccncc1)C(=O)O; Cha = N[C@@H](CC1CCCCC1)C(=O)O; Cit = NC(=O)NCCC[C@H](N)C(=O)O; dCha = N[C@H](CC1CCCCC1)C(=O)O; Carboxymethyl = O=C(O)C*; NMeA = CN[C@@H](C)C(=O)O; Nle = CCCC[C@H](N)C(=O)O; Orn = NCCC[C@H](N)C(=O)O; Pra = C#CC[C@H](N)C(=O)O; Dab = NCC[C@H](N)C(=O)O; Dap = NC[C@H](N)C(=O)O

target: T1, human PD-1 / PD-L1-Ig binding on Jurkat cell line over-expressing human PD-1 (Jurkat-PD-1) (Homo sapiens, UniProt Q15116); assay: Jurkat-PD-1 Cell Binding High-Content Screening Assay (CBA); format: cell-based; details: Jurkat-PD-1 cells, PE-labeled PD-L1-Ig 20 nM final; read-out: Jurkat HPD1_PDL1 IC50
T1 construct: expressed in transfected cells; host or cells: Jurkat
T1 sequence (Q15116 25-288): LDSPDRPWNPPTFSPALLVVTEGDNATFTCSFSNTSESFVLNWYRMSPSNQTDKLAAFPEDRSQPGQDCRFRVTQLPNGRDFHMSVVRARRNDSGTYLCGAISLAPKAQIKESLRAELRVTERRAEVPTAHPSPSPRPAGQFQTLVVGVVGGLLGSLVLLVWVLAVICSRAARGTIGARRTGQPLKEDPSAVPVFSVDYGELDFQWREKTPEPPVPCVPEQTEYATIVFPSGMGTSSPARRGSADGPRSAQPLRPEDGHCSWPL
Procedure, shortened: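 PE-PD-L1-Ig 20 nM final; cells in DMEM/10% FCS; cpd pre-incubation 2 h, 37° C; ligand 1 h; PFA fix + Hoechst 33342; high-content imaging read-out.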

IC50 [nM] | SMILES
18.5 | CC(C)C[C@H]1NC(=O)[C@H](CCCN)NC(=O)[C@H](C(C)C)NC(=O)[C@H](Cc2ccc(-c3ccccc3)cc2)NC(=O)[C@H](C(C)C)NC(=O)[C@H](Cc2c[nH]c3ccccc23)NC(=O)[C@H](CC(=O)O)NC(=O)[C@H](Cc2ccc(OCC(=O)O)cc2)NC(=O)[C@H](CCCCNC(=N)N)NC(=O)CSC[C@@H](C(=O)N(C)[C@@H](C)C(N)=O)NC(=O)[C@H](CO)NC(=O)[C@H](C(C)C)NC(=O)[C@H](CC2CCCCC2)NC(=O)[C@H](CCN)NC1=O [Compound 2569] ({CH2CO}-[hArg]Y(Carboxymethyl)DWV[Bip]V[Orn][dL][Dab][Cha]VSC[NMeA]-NH2; thioether N-14)
46.7 | CC(C)C[C@@H]1NC(=O)[C@H](Cc2c[nH]c3ccccc23)NC(=O)[C@H](CC(=O)O)NC(=O)[C@H](Cc2ccc(O)cc2)NC(=O)[C@H](Cc2ccccc2)NC(=O)CSC[C@@H](C(=O)NCC(N)=O)NC(=O)[C@H](CO)NC(=O)[C@H](C(C)C)NC(=O)[C@H](CC(C)C)NC(=O)[C@H](CC(N)=O)NC(=O)[C@@H](C)NC(=O)[C@H](CN)NC(=O)[C@H](C(C)C)NC(=O)[C@H](Cc2ccc(-c3ccccc3)cc2)NC1=O [Compound 1077] ({CH2CO}-FYDWL[Bip]V[Dap][dA]NLVSCG-NH2; thioether N-14)
92.2 | CC[C@H](C)[C@@H]1NC(=O)[C@H](Cc2ccc(-c3ccccc3)cc2)NC(=O)[C@H](C(C)C)NC(=O)[C@H](Cc2c[nH]c3ccccc23)NC(=O)[C@H](CC(=O)O)NC(=O)[C@H](Cc2ccc(C(=O)O)cc2)NC(=O)[C@H](Cc2ccc(OCC(=O)O)cc2)NC(=O)CSC[C@@H](C(=O)N[C@@H](C)C(N)=O)NC(=O)[C@H]([C@@H](C)O)NC(=O)[C@H](C(C)C)NC(=O)[C@H](Cc2ccc(O)cc2)NC(=O)[C@H](CCN)NC(=O)[C@@H](CC(C)C)NC(=O)[C@H](CCCN)NC1=O [Compound 1679] ({CH2CO}-Y(Carboxymethyl)[Phe(4-COOH)]DWV[Bip]I[Orn][dL][Dab]YVTCA-NH2; thioether N-14)
16.2 | CC[C@H](C)[C@@H]1NC(=O)[C@H](Cc2ccc(-c3ccccc3)cc2)NC(=O)[C@H](C(C)C)NC(=O)[C@H](Cc2cccc(C)c2)NC(=O)[C@H](CC(=O)O)NC(=O)[C@H](Cc2ccncc2)NC(=O)[C@H](CN)NC(=O)CSC[C@@H](C(=O)N[C@@H](C)C(N)=O)NC(=O)[C@H]([C@@H](C)O)NC(=O)[C@H](C(C)C)NC(=O)[C@H](CC2CCCCC2)NC(=O)[C@H](CCN)NC(=O)[C@@H](CC(C)C)NC(=O)[C@H](CCCN)NC1=O [Compound 1561]
110 | Cc1cccc(C[C@@H]2NC(=O)[C@H](CC(=O)O)NC(=O)[C@H](Cc3ccc(C(=O)O)cc3)NC(=O)[C@H](Cc3ccncc3)NC(=O)CSC[C@@H](C(=O)N[C@H](CC(N)=O)C(N)=O)NC(=O)[C@H](CO)NC(=O)[C@H](C(C)(C)O)NC(=O)[C@H](CC3CCCCC3)NC(=O)[C@H](CCN)NC(=O)[C@@H](CC(C)C)NC(=O)[C@H](CCCN)NC(=O)[C@H](Cc3ccc(C(=O)O)cc3)NC(=O)[C@H](Cc3ccc(-c4ccccc4)cc3)NC(=O)[C@H](Cc3ccc(OCC(=O)O)cc3)NC2=O)c1 [Compound 2655] ({CH2CO}-[4Pal][Phe(4-COOH)]D[Phe(3-Me)]Y(Carboxymethyl)[Bip][Phe(4-COOH)][Orn][dL][Dab][Cha][Val(3-OH)]SC[dN]-NH2; thioether N-14)
75.7 | CCCC[C@@H]1NC(=O)[C@H](CCCNC(=N)N)NC(=O)[C@@H](CC(C)C)NC(=O)[C@H](CCCN)NC(=O)[C@H](CCCNC(N)=O)NC(=O)[C@H](Cc2ccc(-c3ccccc3)cc2)NC(=O)[C@H](C(C)C)NC(=O)[C@H](Cc2c[nH]c3ccccc23)NC(=O)[C@H](CC(=O)O)NC(=O)[C@H](Cc2ccc(O)cc2)NC(=O)[C@H](Cc2ccc(OCC(=O)O)cc2)NC(=O)CSC[C@@H](C(=O)N[C@@H](C)C(N)=O)NC(=O)[C@H]([C@@H](C)O)NC(=O)[C@H](C(C)C)NC1=O [Compound 1176] ({CH2CO}-Y(Carboxymethyl)YDWV[Bip][Cit][Orn][dL]R[Nle]VTCA-NH2; thioether N-14)
17.7 | CC(C)C[C@H]1NC(=O)[C@H](CCCN)NC(=O)[C@H](CCC(=O)O)NC(=O)[C@H](Cc2ccc(-c3ccccc3)cc2)NC(=O)[C@H](C(C)C)NC(=O)[C@H](Cc2c[nH]c3ccccc23)NC(=O)[C@H](CC(=O)O)NC(=O)[C@H](Cc2cccnc2)NC(=O)[C@H](Cc2ccncc2)NC(=O)CSC[C@@H](C(=O)N[C@@H](C)C(N)=O)NC(=O)[C@H]([C@@H](C)O)NC(=O)[C@H](C(C)C)NC(=O)[C@H](CC2CCCCC2)NC(=O)[C@H](CCN)NC1=O [Compound 2174] ({CH2CO}-[4Pal][3Pal]DWV[Bip]E[Orn][dL][Dab][Cha]VTCA-NH2; thioether N-14)
4.8 | CC(C)C[C@H]1NC(=O)[C@H](CCCN)NC(=O)[C@H](Cc2ccc(C(=O)O)cc2)NC(=O)[C@H](Cc2ccc(-c3ccccc3)cc2)NC(=O)[C@H](Cc2c[nH]c3ccc(C#N)cc23)NC(=O)[C@H](Cc2cccc(C(F)(F)F)c2)NC(=O)[C@H](CC(=O)O)NC(=O)[C@H](Cc2ccc(C(=O)O)cc2)NC(=O)[C@H](CN2CCOCC2)NC(=O)CSC[C@@H](C(=O)N[C@@H](CCN)C(N)=O)NC(=O)[C@H](CCC(=O)O)NC(=O)[C@H](C(C)C)NC(=O)[C@H](CC2CCCCC2)NC(=O)[C@H](CCN)NC1=O [Example 2740] ({CH2CO}-[Ala(morpholin-4-yl)][Phe(4-COOH)]D[Phe(3-CF3)][Trp(5-CN)][Bip][Phe(4-COOH)][Orn][dL][Dab][Cha]VEC[Dab]-NH2; thioether N-14)
3.9 | C#CC[C@H](NC(=O)[C@H](CCN)NC(=O)[C@@H]1CSCC(=O)N[C@@H](CN)C(=O)N[C@@H](Cc2ccc(OCC(=O)O)cc2)C(=O)N[C@@H](CC(=O)O)C(=O)N[C@@H](Cc2cccc(C)c2)C(=O)N[C@@H](Cc2ccc(OCC(=O)O)cc2)C(=O)N[C@@H](Cc2ccc(-c3ccccc3)cc2)C(=O)N[C@@H](Cc2ccc(OCC(=O)O)cc2)C(=O)N[C@@H](CCCN)C(=O)N[C@H](CC(C)C)C(=O)N[C@@H](CCN)C(=O)N[C@@H](CC2CCCCC2)C(=O)N[C@@H](C(C)(C)O)C(=O)N[C@@H](CO)C(=O)N1)C(N)=O [Compound 1860] ({CH2CO}-[Dap]Y(Carboxymethyl)D[Phe(3-Me)]Y(Carboxymethyl)[Bip]Y(Carboxymethyl)[Orn][dL][Dab][Cha][Val(3-OH)]SC[Dab][Pra]-NH2; thioether N-14)
53.2 | CC(C)C[C@@H]1NC(=O)[C@H](CCN)NC(=O)[C@@H](CC(C)C)NC(=O)[C@H](CCN)NC(=O)[C@H](CCCNC(=N)N)NC(=O)[C@H](Cc2ccc(-c3ccccc3)cc2)NC(=O)[C@H](C(C)C)NC(=O)[C@H](Cc2c[nH]c3ccccc23)NC(=O)[C@H](CC(=O)O)NC(=O)[C@H](Cc2ccc(O)cc2)NC(=O)[C@H](CC(N)=O)NC(=O)CSC[C@@H](C(=O)N[C@@H](C)C(N)=O)NC(=O)[C@H]([C@@H](C)O)NC(=O)[C@H](C(C)C)NC1=O [Compound 1004] ({CH2CO}-NYDWV[Bip]R[Dab][dL][Dab]LVTCA-NH2; thioether N-14)
36.7 | Cc1cccc(C[C@@H]2NC(=O)[C@H](CC(=O)O)NC(=O)[C@H](Cc3ccc(C(=O)O)cc3)NC(=O)[C@H](Cc3ccncc3)NC(=O)CSC[C@@H](C(=O)N[C@@H](C)C(N)=O)NC(=O)[C@H]([C@@H](C)O)NC(=O)[C@H](C(C)C)NC(=O)[C@H](CC3CCCCC3)NC(=O)[C@H](CCN)NC(=O)[C@@H](CC(C)C)NC(=O)[C@H](CCCN)NC(=O)[C@H](CC3CCCCC3)NC(=O)[C@H](Cc3ccc(-c4ccccc4)cc3)NC(=O)[C@H](C(C)C)NC2=O)c1 [Compound 1621]
5 | CC[C@H](C)[C@@H]1NC(=O)[C@H](Cc2ccc(-c3ccccc3)cc2)NC(=O)[C@H](C(C)C)NC(=O)[C@H](Cc2c[nH]c3ccccc23)NC(=O)[C@H](CC(=O)O)NC(=O)[C@H](Cc2ccc(OCC(=O)O)cc2)NC(=O)[C@H](CN)NC(=O)CSC[C@@H](C(=O)N[C@@H](C)C(N)=O)NC(=O)[C@H]([C@@H](C)O)NC(=O)[C@H](C(C)C)NC(=O)[C@H](CC2CCCCC2)NC(=O)[C@H](CCN)NC(=O)[C@@H](CC(C)C)NC(=O)[C@H](CCCN)NC1=O [Compound 1391]
30.4 | CC(C)[C@@H]1NC(=O)[C@H](Cc2c[nH]c3ccccc23)NC(=O)[C@H](CC(=O)O)NC(=O)[C@H](Cc2ccc(C(=O)O)cc2)NC(=O)[C@H](Cc2ccc(OCC(=O)O)cc2)NC(=O)CSC[C@@H](C(=O)N[C@@H](C)C(N)=O)NC(=O)[C@H]([C@@H](C)O)NC(=O)[C@H](C(C)C)NC(=O)[C@H](CC2CCCCC2)NC(=O)[C@H](CCN)NC(=O)[C@@H](CC2CCCCC2)NC(=O)[C@H](CCCN)NC(=O)[C@H](CCCNC(N)=O)NC(=O)[C@H](Cc2ccc(-c3ccccc3)cc2)NC1=O [Compound 1642] ({CH2CO}-Y(Carboxymethyl)[Phe(4-COOH)]DWV[Bip][Cit][Orn][dCha][Dab][Cha]VTCA-NH2; thioether N-14)
27.3 | CC(C)C[C@@H]1NC(=O)[C@H](Cc2c[nH]c3ccccc23)NC(=O)[C@H](CC(=O)O)NC(=O)[C@H](Cc2ccncc2)NC(=O)[C@H](Cc2ccc(OCC(=O)O)cc2)NC(=O)CSC[C@@H](C(=O)NCC(N)=O)NC(=O)[C@H](CO)NC(=O)[C@H](C(C)C)NC(=O)[C@H](CC(C)C)NC(=O)[C@H](CC(N)=O)NC(=O)[C@@H](CC(C)C)NC(=O)[C@H](CN)NC(=O)[C@H](C(C)C)NC(=O)[C@H](Cc2ccc(-c3ccccc3)cc2)NC1=O [Compound 1278] ({CH2CO}-Y(Carboxymethyl)[4Pal]DWL[Bip]V[Dap][dL]NLVSCG-NH2; thioether N-14)
14.7 | CC(C)C[C@H]1NC(=O)[C@H](CCCN)NC(=O)[C@H](CCC(=O)O)NC(=O)[C@H](Cc2ccc(-c3ccccc3)cc2)NC(=O)[C@H](C(C)C)NC(=O)[C@H](Cc2c[nH]c3ccccc23)NC(=O)[C@H](CC(=O)O)NC(=O)[C@H](Cc2ccc(O)cc2)NC(=O)[C@H](CC(N)=O)NC(=O)CSC[C@@H](C(=O)N[C@@H](C)C(N)=O)NC(=O)[C@H]([C@@H](C)O)NC(=O)[C@H](C(C)C)NC(=O)[C@H](CC2CCCCC2)NC(=O)[C@H](CCN)NC1=O [Compound 1424] ({CH2CO}-NYDWV[Bip]E[Orn][dL][Dab][Cha]VTCA-NH2; thioether N-14)
